Patent publication US20250099433A1, “COMPOSITION AND METHOD FOR TREATMENT OF GRAM NEGATIVE BACTERIAL INFECTION” (The Research Foundation for the State University of New York, priority 2021, published 2025)
≈ marks a conversion by molar mass, not a printed value. Where “and” joins values, the source holds several entries; their conditions need not be identical. Identical values can stand only once.

Tests used:
P. aeruginosa PAO1 = assay: MIC by microbroth dilution, P. aeruginosa PAO1; details: Pseudomonas aeruginosa, PAO1, read-out: MIC (μM) (PAO1)
FabZ* E. coli = type: cell-based, Escherichia coli; details: 1:1000 dilution; for PAE (h) 1x, FabZ*: 1xMIC for 1 h; for PAE (h) 4x, FabZ*: 4xMIC for 1 h; for PAE (h) 16x, FabZ*: 16xMIC for 1 h
From the text: FIG. 4. Post-antibiotic effect of the ecLpxC inhibitors on wild-type and FabZ* E. coli.
This included use of an E. coli strain (FabZ*) containing a hyperactive mutant of the fatty acid biosynthesis O-hydroxyacyl-ACP enzyme (FabZ), and determination of PAEs for wild-type E. coli in the presence of sub-MIC concentrations of macrolides.

[1] = test system: efflux-pump mutant strain (ΔMexABCDXY) (paEP); assay: MIC by microbroth dilution, efflux-pump mutant P. aeruginosa; details: Pseudomonas aeruginosa, read-out: MIC (μM) (paEP)
From the text: Bacterial Strains. […] The efflux-pump deficient P. aeruginosa strain (ΔMexABCDXY), N150, was derived from PAO1.
Minimum Inhibitory Concentration (MIC) Measurements.

ecLpxC = ecLpxC (Escherichia coli (strain K12), UniProt P0A725); type: binding; details: residence time on ecLpxC at 25° C., displacement by fluorescent ligand
Description: Compounds were preincubated with ecLpxC and then mixed with a fluorescent LpxC inhibitor PT900.

paLpxC = paLpxC (Pseudomonas aeruginosa (strain ATCC 15692 / DSM 22644 / CIP 104116 / JCM 14847 / LMG 12228 / 1C / PRS 101 / PAO1), UniProt P47205); assay: biochemical; type: binding
[2] = test system: E. coli strain (K-12, MG1655); assay: MIC by microbroth dilution, wild-type E. coli; type: cell-based, Escherichia coli; details: wild-type E. coli K-12 MG1655
[3] = test system: wild-type E. coli (K12 MG1655); assay: PAE in wild-type E. coli in the presence of sub-MIC azithromycin; type: cell-based, Escherichia coli; details: 16xMIC, 37° C.; for PAE (h) (sub-MIC AZ) 16x(0.2): then media with 0.2xMIC azithromycin; for PAE (h) (sub-MIC AZ) 16x(0.4): then media with 0.4xMIC azithromycin
From the text: FIG. 6. Post-antibiotic effect in the presence of sub-MIC azithromycin.
The PAE measurements were repeated for wild-type E. coli in the presence of sub-MIC levels of the protein synthesis inhibitor azithromycin.

[4] = test system: FabZ*, hyperactive FabZ strain (L85P); assay: microbe, parasite or virus in culture; type: cell-based, Escherichia coli
[5] = test system: wild-type E. coli and FabZ* E. coli; assay: Time kill assays in E. coli; details: 4xMIC (16xMIC in FIG. 3), CaMH media, 37° C.
Description: Each time point was performed in duplicate or triplicate and the entire experiment was performed in triplicate. The data points in the figure are the mean values from the independent measurements and the error bars represent the standard deviation from the mean.
The antimicrobial activity of the compounds was examined. […] The post-antibiotic effect (PAE) of the inhibitors was measured by monitoring the regrowth of bacteria following compound washout. […] Bacterial regrowth was monitored by plating samples as a function of time after wash-out and enumerating CFUs.

[6] = test system: wild-type E. coli (K-12 MG1655); assay: Post-antibiotic effect (PAE) in wild-type E. coli; type: cell-based, Escherichia coli; details: 1:1000 dilution; for PAE (h) 1x, Wild-type: 1xMIC for 1 h; for PAE (h) 4x, Wild-type: 4xMIC for 1 h; for PAE (h) 16x, Wild-type: 16xMIC for 1 h
From the text: FIG. 4. Post-antibiotic effect of the ecLpxC inhibitors on wild-type and FabZ* E. coli. […] PAE data for wild-type E. coli are in panels (a) PT805, (c) PT810 and (e) CHIR-090, and for FabZ* E. coli in (b) PT805, (d) PT810 and (f) CHIR-090.
PAE data for wild-type E. coli are in panels (a) PT805, (c) PT810 and (e) CHIR-090, and for FabZ* E. coli in (b) PT805, (d) PT810 and (f) CHIR-090.

[7] = in vivo; cited from earlier work
[8] = target: LpxC from Aquifex aeolicus (aaLpxC) (Aquifex aeolicus (strain VF5), UniProt O67648); details: cited from earlier work
LpxC from E. coli = LpxC from E. coli (Escherichia coli (strain K12), UniProt P0A725); details: cited from earlier work
Sequence of LpxC from E. coli (P0A725 whole entry): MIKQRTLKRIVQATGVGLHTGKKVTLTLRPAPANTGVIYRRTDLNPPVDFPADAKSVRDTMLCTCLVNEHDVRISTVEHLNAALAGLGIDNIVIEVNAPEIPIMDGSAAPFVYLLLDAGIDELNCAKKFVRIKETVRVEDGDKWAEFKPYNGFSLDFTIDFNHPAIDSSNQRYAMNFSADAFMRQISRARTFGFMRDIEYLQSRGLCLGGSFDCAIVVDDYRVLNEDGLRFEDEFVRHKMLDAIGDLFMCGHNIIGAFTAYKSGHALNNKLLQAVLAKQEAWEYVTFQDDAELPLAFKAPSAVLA

Sequence of paLpxC (P47205 1-299): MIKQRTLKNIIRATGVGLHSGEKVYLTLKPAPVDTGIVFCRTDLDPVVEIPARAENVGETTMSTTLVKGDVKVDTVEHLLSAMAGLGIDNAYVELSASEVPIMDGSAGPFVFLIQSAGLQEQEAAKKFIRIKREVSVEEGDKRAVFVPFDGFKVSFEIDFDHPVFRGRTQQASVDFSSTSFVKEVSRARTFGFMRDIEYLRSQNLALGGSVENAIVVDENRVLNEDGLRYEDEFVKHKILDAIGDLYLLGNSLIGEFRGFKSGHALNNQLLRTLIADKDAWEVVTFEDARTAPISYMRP
Sequence of LpxC from Aquifex aeolicus (aaLpxC) (O67648 whole entry): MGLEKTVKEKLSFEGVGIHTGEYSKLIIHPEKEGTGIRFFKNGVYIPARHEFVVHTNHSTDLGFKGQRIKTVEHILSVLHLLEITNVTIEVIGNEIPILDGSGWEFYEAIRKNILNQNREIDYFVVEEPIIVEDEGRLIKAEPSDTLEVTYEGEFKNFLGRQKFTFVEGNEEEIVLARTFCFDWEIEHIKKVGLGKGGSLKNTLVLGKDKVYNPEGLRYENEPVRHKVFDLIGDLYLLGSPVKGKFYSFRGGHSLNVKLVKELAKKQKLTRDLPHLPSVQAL

Compound | PAE (h) 1x, FabZ* (FabZ* E. coli) [h] | PAE (h) 4x, FabZ* (FabZ* E. coli) | PAE (h) 16x, FabZ* (FabZ* E. coli) [h] | tR (ecLpxC) [min] | PAE (h) (sub-MIC AZ) 16x(0.2) [3] | PAE (h) (sub-MIC AZ) 16x(0.4) [3] | reduction of the starting log CFU/mL of the bacterial culture [5] | PAE (h) 1x, Wild-type [6] [h] | PAE (h) 4x, Wild-type [6] [h] | PAE (h) 16x, Wild-type [6] [h] | other results
CC(CCn1ccc(-c2ccc(-c3cn(Cc4ccccc4)nn3)cc2)cc1=O)(C(=O)NO)S(C)(=O)=O (racemic) [PT810, 4-(4-(4-(1-Benzyl-1H-1,2,3-triazol-4-yl)phenyl)-2-oxopyridin-1(2H)-yl)-N-hydroxy-2-methyl-2-(methylsulfonyl)butanamide] | 0.7 ± 0.2 | 0.76 ± 0.19 h and 0.8 ± 0.2 h | 0.9 ± 0.2 | 6 ± 3 | 1.9 ± 0.8 | 2.6 ± 0.8 | greater than 3 logs | 0 | 0 | 0 | MIC (P. aeruginosa PAO1): 12.5 µM (≈ 6.52 µg/mL); MIC [1]: 0.78 µM (≈ 0.407 µg/mL); Ki (paLpxC; 37° C., fluorescence competition): 0.0106 ± 0.0089 nM; tR (min) Fluorescence assay (paLpxC; 37° C., tR = 1/koff): 57 min and 57.3 ± 18.4 min; koff (paLpxC; read-out: Koff (s^−1)): 0.00032 ± 0.0001 s⁻¹; kon (paLpxC; read-out: Kon (μM^−1s^−1)): 43.8 ± 31.7 µM⁻¹ s⁻¹; MIC ([2]; Escherichia coli): 0.17 µM (≈ 0.0887 µg/mL); MIC ([4]; Escherichia coli, read-out: MIC (μM) FabZ*): 0.08 µM (≈ 0.0417 µg/mL)
CC(C)(N)[C@H](NC(=O)c1ccc(C#CC#C[C@@H]2C[C@H]2CO)cc1)C(=O)NO [ACHN-975] | – | – | – | – | – | – | – | – | – | – | toxicity in clinical trials [7]: dose-limiting cardiovascular toxicity
C[C@@H](O)[C@H](NC(=O)c1ccc(C#Cc2ccc(CN3CCOCC3)cc2)cc1)C(=O)NO [CHIR-090] | 0.5 ± 0.1 | 1.34 ± 0.04 h and 1.3 ± 0.3 h | 2.4 ± 0.2 | 66 ± 30 | 2.8 ± 0.3 | 3.7 ± 0.2 | greater than 3 logs | 0 | 0 | 0 | residence time on aaLpxC [8]: > 24 h; MIC [2]: 0.62 µM (≈ 0.271 µg/mL); MIC (μM) FabZ* ([4]; hyperactive FabZ strain (L85P)): 0.010 µM (≈ 0.00437 µg/mL)
CC(O)(C(F)F)C(NC(=O)c1ccc(C#CC#Cc2ccc(N)cc2)cc1)C(=O)NO (stereo not drawn) [LPC-058] | – | – | – | – | – | – | – | – | – | – | residence time on LpxC from E. coli (LpxC from E. coli): ~12 h
